As a reminder, the IC50 is the concentration that gives 50% inhibition.

Chain of recombinant human TYRO3 (Q06418 41-890): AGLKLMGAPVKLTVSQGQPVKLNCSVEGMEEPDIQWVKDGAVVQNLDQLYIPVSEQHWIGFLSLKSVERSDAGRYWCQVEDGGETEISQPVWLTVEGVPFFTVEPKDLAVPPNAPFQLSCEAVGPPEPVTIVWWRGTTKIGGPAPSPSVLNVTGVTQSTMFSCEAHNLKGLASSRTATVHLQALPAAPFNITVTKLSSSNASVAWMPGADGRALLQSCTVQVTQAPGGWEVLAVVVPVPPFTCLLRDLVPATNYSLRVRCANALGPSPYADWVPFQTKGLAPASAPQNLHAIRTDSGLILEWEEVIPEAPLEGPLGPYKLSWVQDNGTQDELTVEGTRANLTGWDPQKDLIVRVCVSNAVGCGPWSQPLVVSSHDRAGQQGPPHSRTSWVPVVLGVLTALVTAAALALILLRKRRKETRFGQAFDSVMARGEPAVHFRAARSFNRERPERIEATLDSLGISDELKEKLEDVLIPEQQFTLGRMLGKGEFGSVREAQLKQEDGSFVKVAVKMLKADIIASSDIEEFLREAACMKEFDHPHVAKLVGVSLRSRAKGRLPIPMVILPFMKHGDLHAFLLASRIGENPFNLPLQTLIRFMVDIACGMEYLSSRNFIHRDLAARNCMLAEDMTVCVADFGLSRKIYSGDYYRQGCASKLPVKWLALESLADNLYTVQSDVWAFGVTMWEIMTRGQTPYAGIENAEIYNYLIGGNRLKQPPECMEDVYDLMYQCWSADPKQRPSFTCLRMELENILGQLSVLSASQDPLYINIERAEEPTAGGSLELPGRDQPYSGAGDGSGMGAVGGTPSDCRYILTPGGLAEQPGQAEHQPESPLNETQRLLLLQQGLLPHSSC

The assay concerns the target recombinant human TYRO3 (Homo sapiens (Human), UniProt Q06418). The assay is described as follows: TYRO3 enzymatic assay (radiometric [32P]-ATP, Poly(Glu,Tyr) substrate). It is filed as biochemical. The note with it: recombinant human TYRO3, [32P]-ATP. On the procedure: Poly(Glu, Tyr) sodium salt (Glu:Tyr (4:1), quality level 200, molecular weight 5,000-20,000, obtained from Sigma Aldrich, catalogue #P7244, assay concentration 0.20 mg/mL) and recombinant human TYRO3 (obtained from ThermoFisher Scientific, catalogue #PV3828, assay concentration 2 nM) were mixed in assay buffer (20 mM Hepes pH 7.5, 10 mM MgCl2, 1 mM EGTA, 0.02% Brij35, 0.02 mg/ml BSA, 0.1 mM Na3VO4, 2 mM DTT, 1% DMSO, with added MnCl2 at a final concentration of 2 mM). Compounds of interest (in DMSO, serial 3-fold dilution from 10 μM to 0.5 nM) or control (1% DMSO) were dispensed into the kinase reaction mixture by Acoustic technology (Echo550; nanoliter range). After incubation at room temperature for 20 minutes, the kinase reaction was initiated by addition of [^32P]-ATP (Specific activity 10 μCi/μl) and the mixture was incubated at room temperature for 2 hours. The reaction was then stopped by spotting the reaction mixture on strips of phosphocellulose P81 paper. Following washing, the radioactivity of the P81 paper was measured and kinase activity data were expressed as the percent remaining kinase activity in test samples compared to vehicle (dimethyl sulfoxide) reactions. IC50 values and curve fits were obtained using Prism (GraphPad Software).
For `OC1CCCN(Cc2ccc(-c3cnc4[nH]cc(-c5ccc(F)cc5)c4c3)cc2)C1` (stereo not shown) [compound 3, 1-(4-(3-(4-fluorophenyl)-1H-pyrrolo[2,3-b]pyridin-5-yl)benzyl)piperidin-3-ol], the IC50 is 51 to 150 nM.
Consider `COc1ccc(-c2c[nH]c3ncc(-c4ccc(CN5CC(OC)C5)cc4)cc23)cn1` [compound 35, 5-(4-((3-methoxyazetidin-1-yl)methyl)phenyl)-3-(6-methoxypyridin-3-yl)-1H-pyrrolo[2,3-b]pyridine], for which the IC50 fell in the range of 51 to 150 nM.
The result for `OC1CCCN(Cc2ccc(-c3cnc4[nH]cc(-c5cncc(F)c5)c4c3)cc2)C1` (stereo not shown) [compound 22, 1-(4-(3-(5-fluoropyridin-3-yl)-1H-pyrrolo[2,3-b]pyridin-5-yl)benzyl)piperidin-3-ol] reads 51 to 150 nM.
On to `Cc1ccc(-c2c[nH]c3ncc(-c4ccc(CN5CCCC(O)C5)cc4)cc23)cc1` (stereo not shown) [compound 1, 1-(4-(3-(p-tolyl)-1H-pyrrolo[2,3-b]pyridin-5-yl)benzyl)piperidin-3-ol], for which the 50% inhibitory concentration (IC50) lay in the range of 51 to 150 nM.
On to `CNC1CCN(Cc2ccc(-c3cnc4[nH]cc(-c5ccc(OC)nc5)c4c3)cc2)CC1` [compound 73], for which the IC50 lay in the range of 151 to 500 nM.
With `OC1CCCN(Cc2ccc(-c3cnc4[nH]cc(-c5ccc(F)nc5)c4c3)cc2)C1` (stereo not shown) [compound 21, 1-(4-(3-(6-fluoropyridin-3-yl)-1H-pyrrolo[2,3-b]pyridin-5-yl)benzyl)piperidin-3-ol], the IC50 fell in the range of 51 to 150 nM.
For the molecule `OCc1[nH]c2ncc(-c3ccc(CN4CCCC(O)C4)cc3)cc2c1-c1cccc(F)c1` (single isomer, unassigned; enantiomer 1) [compound 88, 1-(4-(3-(3-fluorophenyl)-2-(hydroxymethyl)-1H-pyrrolo[2,3-b]pyridin-5-yl)benzyl)piperidin-3-ol Enantiomer 1], the IC50 fell in the range of 151 to 500 nM.
On to `COc1ccc(-c2c[nH]c3ncc(-c4ccc(CN5CCCC(OC)C5)cc4)cc23)cn1` (single isomer, unassigned; enantiomer 1) [compound 38, 5-(4-((3-methoxypiperidin-1-yl)methyl)phenyl)-3-(6-methoxypyridin-3-yl)-1H-pyrrolo[2,3-b]pyridine Enantiomer 1], for which the 50% inhibitory concentration (IC50) was 151 to 500 nM.
On to `CCOC1CN(Cc2ccc(-c3cnc4[nH]cc(-c5ccc(OC)nc5)c4c3)cc2)C1` [compound 36, 5-(4-((3-ethoxyazetidin-1-yl)methyl)phenyl)-3-(6-methoxypyridin-3-yl)-1H-pyrrolo[2,3-b]pyridine], for which the IC50 was 151 to 500 nM.
The result for `OCc1ccc(-c2c[nH]c3ncc(-c4ccc(CN5CCCC(O)C5)cc4)cc23)cn1` (stereo not shown) [compound 43, 1-(4-(3-(6-(hydroxymethyl)pyridin-3-yl)-1H-pyrrolo[2,3-b]pyridin-5-yl)benzyl)piperidin-3-ol] reads 51 to 150 nM.

(Values after patent US20240425499A1, “TYRO3 INHIBITORS” (HALIA THERAPEUTICS, INC., priority 2021, published 2024).)
